Data: patent US20180344637A1, “WATER SOLUBLE MICELLAR DRUG DELIVERY AGENTS” (Wayne State University, priority 2015, published 2018)
Converted amounts (≈) assume the structure as drawn.

Assays:
AsPC-1 cells = assay: In vitro MTT cytotoxicity assay; type: cell-based, human; settings: 72 h
Protocol: (§1) Human pancreatic cancer cell lines MiaPaCa-2 and AsPC-1 were used. Both cell lines were maintained in Dulbecco's Modified Eagle's Medium (DMEM; Invitrogen), supplemented with 5% FBS, 2 mmol/L glutamine, 50 units/mL penicillin, and 50 μg/mL streptomycin under standard culture conditions. The cell lines have been tested and authenticated in the core facility of Applied Genomics Technology Center at Wayne State University. The method used for testing was short tandem repeat profiling using the PowerPlex 16 System from Promega.
(§2) The in vitro cytotoxicity of free CDF, CUR, SMA and micelles was evaluated by MTT cytotoxicity assay based on measurement of the activity of enzymes present in live cells that reduces MTT to give a purple color. Cells were seeded in a 96-well culture plate and the formulations were applied 24 h after seeding as freshly prepared solutions in PBS (pH 7.4) using between 100 to 1000 nM concentrations of the test agents. MTT (0.5 mg/ml) was added at the end of treatment (72 h) and plates incubated at 37° C. for 2 h, followed by replacement of media with DMSO at room temperature for 30 min and absorbance were measured at 590 nm using Ultra Multi-functional Micro plate Reader (TECAN).

MiaPaCa-2 cells [1] = assay: In vitro MTT cytotoxicity assay; type: cell-based, human; settings: 72 h
Protocol: as §1, §2

MiaPaCa-2 cells [2] = assay: MTT assay before and after HA receptor blockade; type: cell-based, human; settings: MiaPaCa-2, 72 h
From the text: FIG. 13(c) and FIG. 13(d) show comparisons of percent cell viability of different formulations before and after HA receptor blockade.

[3] = system: CD44+ cells (CD44+/CD133+/EpCAM+ CSLCs from MiaPaCa-2); assay: MTT assay on CD44+ versus CD44− pancreatic cancer cells; type: cell-based, human; settings: 72 h
Protocol: The CSLCs (triple-marker positive; CD44+/CD133+/EpCAM+) and triple-marker negative (CD44−/CD133−/EpCAM−) cells were isolated from human pancreatic MiaPaCa-2 cells, by fluorescence-activated cell sorting (FACS) technique. The postsorted cells were subsequently maintained in 5% FBS-DMEM media at 37° C. under standard culture conditions.
Triple-marker positive (CD44+/CD133+/EpCAM+) CSLCs and triple-marker-negative (CD44−/CD133−/EpCAM−) cells were isolated and cultured as described in above and seeded in a 96-well culture plate, and subsequently free CDF, HA-SMA, nontargeted (SMA-CDF), and targeted (HA-SMA-CDF) nanomicelles were applied 24 h after seeding as a freshly prepared solution in DMSO diluted with PBS (pH 7.4) at between 250 to 750 nM concentration, MTT reagent was added and the absorbance measured at 595 nm using an Ultramultifunctional Microplate Reader ([…], Switzerland), and percent cell viability was determined by comparing the values with appropriate controls.

CD44 = assay: Western blot analysis of CD44 expression; type: cell-based, human; settings: 250 nM, 48 h, triple marker positive CSLCs, versus untreated and HA-SMA controls
Protocol: Triple marker positive CSLCs derived from MiaPaCa-2 were plated and allowed to attach for 36 h. CDF loaded formulations were directly added to cell cultures at 250 nM concentration and incubated for 48 h. Untreated (control) and HASMA treated (control) cells were incubated in the medium containing an equivalent concentration of PBS. After incubation, the cells were collected in PBS, and whole cell lysate was prepared by suspending the cells in 150 μL of lysis buffer [1 mol/L Tris-HCl (pH 7.5), 150 mmol/L NaCl, 1 mmol/L EDTA, 0.1% Triton X-100, 0.1 mmol/L sodium orthovanadate, 1 mmol/L phenylmethylsulfonyl fluoride ([…]), and 2 μg/mL leupeptin and 2μg,/mL aprotinin] lysed, and centrifuged. The cells were disrupted by sonication (Branson Ultrasonics, Danbury, Conn.), and the total protein content was determined by bicinchoninic acid (BCA) assay. For immunoblotting, 30 μg of total proteins was separated on SDS-PAGE, electro-transferred onto nitrocellulose membranes, and probed with specific antibodies ([…], MA). Detection of specific proteins was carried out with an enhanced chemiluminescence western blotting kit according to the manufacturer's instructions (Life Technologies, Waltham, Mass.).

[4] = cited from earlier work

COc1cc(/C=C/C(=O)C(=Cc2ccc(F)c(F)c2)C(=O)/C=C/c2ccc(O)c(OC)c2)ccc1O [CDF, curcumin difluorinated]
IC50 (AsPC-1 cells): 810 ± 1.51 nM | cell viability (MiaPaCa-2 cells [1]; 1000 nM CDF equivalent concentration, MiaPaCa-2): 28.47±2.29% | anticancer activity compared to free CMN (in words) (MiaPaCa-2 cells [1]; MTT): significantly improved anticancer activity | IC50 (MiaPaCa-2 cells [1]; MiaPaCa-2 cells): 400 ± 4.53 nM | IC50 (MiaPaCa-2 cells [2]; after receptor blockade using free soluble HA): 473 ± 8.69 nM | IC50 (MiaPaCa-2 cells [2]; before the blockade of HA receptors): 465 ± 7.34 nM | IC50 [3]: 410 ± 3.64 nM | expression of CD44 levels (in words) (CD44): marked reduction | water solubility ([4]; free form): 0.6 µg/mL (≈ 1.22 µM)

CC(=O)O[C@@]12CO[C@@H]1C[C@H](O)[C@@]1(C)C(=O)[C@H](O)C3=C(C)[C@@H](OC(=O)[C@H](O)[C@@H](NC(=O)OC(C)(C)C)c4ccccc4)C[C@@](O)([C@@H](OC(=O)c4ccccc4)[C@H]21)C3(C)C [Docetaxel, docetaxel]
water solubility (estimated) [4]: 10 to 20 µM

CC(=O)O[C@H]1C(=O)[C@@]2(C)[C@H]([C@H](OC(=O)c3ccccc3)[C@]3(O)C[C@H](OC(=O)[C@H](O)[C@@H](NC(=O)c4ccccc4)c4ccccc4)C(C)=C1C3(C)C)[C@]1(OC(C)=O)CO[C@@H]1C[C@@H]2O [Paclitaxel, paclitaxel]
water solubility (estimated) [4]: 10 to 20 µM
